From patent US9242984B2, “Pyrazolyl derivatives as Syk inhibitors” (Merck Sharp & Dohme Corp., priority 2012, dated 2016)

target: T1, recombinant human Syk (GST-hSyk fusion protein) (Homo sapiens, UniProt P43405); assay: Homogeneous Time-Resolved Fluorescence (HTRF) assay for the recombinant human Syk enzyme; format: biochemical; conditions: 10-dose titration, 25 μM ATP; read-out: rhSYK IC50
T1 construct: purchased Carna Biosciences 08-176
Summary of the method: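 GST-hSyk (5 pM) preincubated 10 min with compound (0.1% DMSO) in 15 mM Tris-HCl pH 7.5, 2 mM DTT; reaction started with 250 nM biotinylated peptide, 5 mM Mg, 25 μM ATP, 45 min, room temperature. EDTA quench, Eu-anti-phosphotyrosine/SA-APC HTRF read after 30 min; IC50 from 10-dose titration (10 μM–0.508 nM), four-parameter fit.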

Row | IC50 [nM] | Compound
1 | 0.7 | Cc1cc(Nc2nccc(C(F)F)n2)cc(-c2cnn(C3CCCC(O)C3O)c2)c1 (single isomer, unassigned) [Example 10.7, 3-[4-(3-{[4-(difluoromethyl)pyrimidin-2-yl]amino}-5-methylphenyl)-1H-pyrazol-1-yl]cyclohexane-1,2-diol]
2 | 1.6 | Cc1cc(Nc2nccc(C(F)F)n2)cc(-c2cnn(CC(O)(CO)C(F)(F)F)c2)c1 (single isomer, unassigned) [Example 32.1, (S or R)-2-((4-(3-((4-(difluoromethyl)pyrimidin-2-yl)amino)-5-methylphenyl)-1H-pyrazol-1-yl)methyl)-3,3,3-trifluoropropane-1,2-diol]
3 | 5.8 | Cc1cc(Nc2nccc(C(F)F)n2)cc(-c2cnn(C3CCC(O)C3(C)O)c2)c1 (centres unmarked) [Example 22.14, 5-[4-(3-{[4-(difluoromethyl)pyrimidin-2-yl]amino}-5-methylphenyl)-1H-pyrazol-1-yl]-1-methylcyclopentane-1,2-diol]

same assay, conditions: IC50 class; 10-dose titration, 25 μM ATP; read-out: rhSYK Activity

Row | IC50 [nM] | Compound
4 | ≤ 100 | Cc1cc(Nc2nccc(C(F)F)n2)cc(-c2cnn(CC3CCNC(=O)O3)c2)c1 (centres unmarked) [Example 2.78, 6-{[4-(3-{[4-(difluoromethyl)pyrimidin-2-yl]amino}-5-methylphenyl)-1H-pyrazol-1-yl]methyl}-1,3-oxazinan-2-one]
5 | ≤ 100 | Cc1cc(Nc2nccc(C(F)(F)F)n2)cc(-c2cnn(CCNC(N)=O)c2)c1 [Example 3.16, 1-{2-[4-(3-methyl-5-{[4-(trifluoromethyl)-pyrimidin-2-yl]-amino}phenyl)-1H-pyrazol-1-yl]ethyl}urea]
6 | 100 to 1000 | Cc1cc(Nc2cc(C)c(Cl)cn2)nc(-n2cc(CCC(=O)O)cn2)c1 [Example 18.4, 3-(1-{6-[(5-chloro-4-methylpyridin-2-yl)amino]-4-methylpyridin-2-yl}-1H-pyrazol-4-yl)propanoic acid]
7 | ≤ 100 | Cc1cc(Nc2nccc(C(F)F)n2)cc(-c2cnn(Cc3[nH]cnc3C)c2)c1 [Example 3.109, 4-(difluoromethyl)-N-(3-methyl-5-{1-[(4-methyl-1H-imidazol-5-yl)methyl]-1H-pyrazol-4-yl}phenyl)pyrimidin-2-amine]
8 | ≤ 100 | Cc1cc(Nc2nccc(C(F)F)n2)cc(-c2cnn(C(C[C@@H](C)O)[C@H](C)O)c2)c1 (stereo in doubt) [Example 2.50, 3-[4-(3-{[4-(difluoromethyl)pyrimidin-2-yl]amino}-5-methylphenyl)-1H-pyrazol-1-yl]hexane-2,5-diol]
9 | ≤ 100 | Cc1cc(Nc2nccc(C(F)(F)F)n2)cc(-c2cnn(C3CCC(C(=O)O)c4ccccc43)c2)c1 (centres unmarked) [Example 3.51, 4-[4-(3-methyl-5-{[4-(trifluoromethyl)pyrimidin-2-yl]amino}phenyl)-1H-pyrazol-1-yl]-1,2,3,4-tetrahydronaphthalene-1-carboxylic acid]
10 | ≤ 100 | Cc1cc(Nc2nccc(C)n2)cc(-c2cnn(CC(C)(O)CO)c2)c1 (single isomer, unassigned) [Example 25.2, 2-methyl-3-(4-{3-methyl-5-[(4-methylpyrimidin-2-yl)amino]phenyl}-1H-pyrazol-1-yl)propane-1,2-diol]
11 | ≤ 100 | Cc1cc(Nc2nccc(C(F)F)n2)cc(-c2cnn(C(C[C@H](C)O)[C@H](C)O)c2)c1 (stereo in doubt) [Example 2.55, 3-[4-(3-{[4-(difluoromethyl)pyrimidin-2-yl]amino}-5-methylphenyl)-1H-pyrazol-1-yl]hexane-2,5-diol]
12 | ≤ 100 | Cc1cc(Nc2nccc(C(F)(F)F)n2)cc(-c2cnn(C[C@H](O)CC#N)c2)c1 [Example 3.2, (3R)-3-hydroxy-4-[4-(3-methyl-5-{[4-(trifluoromethyl)-pyrimidin-2-yl]amino}phenyl)-1H-pyrazol-1-yl]-butanenitrile]
13 | ≤ 100 | Cc1cc(Nc2nccc(C(F)F)n2)cc(-c2cnn(CC(C)(C)NS(C)(=O)=O)c2)c1 [Example 27.4, N-{2-[4-(3-{[4-(difluoromethyl)pyrimidin-2-yl]amino}-5-methylphenyl)-1H-pyrazol-1-yl]-1,1-dimethylethyl}methanesulfonamide]
14 | ≤ 100 | Cc1cc(Nc2nccc(C(F)F)n2)cc(-c2cnn(CC(O)C(N)=O)c2)c1 (centres unmarked) [Example 5.18, 3-[4-(3-{[4-(difluoromethyl)pyrimidin-2-yl]amino}-5-methylphenyl)-1H-pyrazol-1-yl]-2-hydroxypropanamide]
15 | ≤ 100 | Cc1cc(Nc2nccc(C(F)F)n2)cc(-c2cnn(C(C[C@H](C)O)[C@@H](C)O)c2)c1 (stereo in doubt) [Example 2.49, 3-[4-(3-{[4-(difluoromethyl)pyrimidin-2-yl]amino}-5-methylphenyl)-1H-pyrazol-1-yl]hexane-2,5-diol]
16 | ≤ 100 | Cc1cc(Nc2nccc(C(F)F)n2)cc(-c2cnn(CC(C)(O)CO)c2)c1 (single isomer, unassigned) [Example 25.3, 3-[4-(3-{[4-(difluoromethyl)pyrimidin-2-yl]amino}-5-methylphenyl)-1H-pyrazol-1-yl]-2-methylpropane-1,2-diol]

The next lines start with the compound.

Row | Compound | IC50 [nM]
17 | Cc1cc(Nc2nccc(C(F)(F)F)n2)cc(-c2cnn(CC(=O)N3COCC3(C)C)c2)c1 [Example 3.11, N-(3-{1-[2-(4,4-dimethyl-1,3-oxazolidin-3-yl)-2-oxoethyl]-1H-pyrazol-4-yl}-5-methylphenyl)-4-(trifluoromethyl)pyrimidin-2-amine] | ≤ 100
18 | Cc1cc(Nc2nccc(C(F)F)n2)cc(-c2cnn(CC(O)C3CCCNC3)c2)c1 (centres unmarked) [Example 5.34, 2-[4-(3-{[4-(difluoromethyl)pyrimidin-2-yl]amino}-5-methylphenyl)-1H-pyrazol-1-yl]-1-piperidin-3-ylethanol] | ≤ 100
19 | COCCNC(=O)[C@@H](O)Cn1cc(-c2cc(C)cc(Nc3nccc(C(F)(F)F)n3)c2)cn1 [Example 6.13, (2S)-2-hydroxy-N-(2-methoxyethyl)-3-[4-(3-methyl-5-{[4-(trifluorometh-yl)pyrimidin-2-yl]amino}phenyl)-1H-pyrazol-1-yl]propanamide] | ≤ 100
20 | COc1ccnc(Nc2cccc(-c3cnn(C[C@@H](O)C(=O)O)c3)c2)n1 [Example 11.11, (2R)-2-hydroxy-3-(4-{3-[(4-methoxy-pyrimidin-2-yl)amino]phenyl}-1H-pyrazol-1-yl)propanoic acid] | ≤ 100
21 | Cc1cc(Nc2nccc(C(F)F)n2)cc(-c2cnn(C3CCCC(O)C3O)c2)c1 (single isomer, unassigned) [Example 10.7, 3-[4-(3-{[4-(difluoromethyl)pyrimidin-2-yl]amino}-5-methylphenyl)-1H-pyrazol-1-yl]cyclohexane-1,2-diol] | ≤ 100
22 | Cc1cc(Nc2nccc(C(F)F)n2)cc(-c2cnn(CC3(C)CNC(=O)C3)c2)c1 (centres unmarked) [Example 2.80, 4-{[4-(3-{[4-(difluoromethyl)pyrimidin-2-yl]amino}-5-methylphenyl)-1H-pyrazol-1-yl]methyl}-4-methylpyrrolidin-2-one] | ≤ 100
23 | Cc1cc(Nc2cc(C(F)F)ccn2)nc(-c2cnn(C(C)C3CNC(=O)C3)c2)c1 (centres unmarked) [Example 1.64, 4-{1-[4-(6-{[4-(difluoromethyl)pyridin-2-yl]amino}-4-methylpyridin-2-yl)-1H-pyrazol-1-yl]ethyl}pyrrolidin-2-one] | ≤ 100
24 | Cc1cc(Nc2nccc(C(F)F)n2)cc(-c2cnn(CC(O)(CO)C(F)(F)F)c2)c1 (single isomer, unassigned) [Example 32.1, (S or R)-2-((4-(3-((4-(difluoromethyl)pyrimidin-2-yl)amino)-5-methylphenyl)-1H-pyrazol-1-yl)methyl)-3,3,3-trifluoropropane-1,2-diol] | ≤ 100
25 | Cc1cc(Nc2nccc(C(F)F)n2)cc(-c2cnn(CC(C)(C)N)c2)c1 [Example 2.85, N-{3-[1-(2-amino-2-methylpropyl)-1H-pyrazol-4-yl]-5-methylphenyl}-4-(difluoromethyl)pyrimidin-2-amine] | ≤ 100
26 | Cc1cc(Nc2nccc(C(F)F)n2)cc(-c2cnn(C(C[C@H](C)O)[C@@H](C)O)c2)c1 (stereo in doubt) [Example 2.53, 3-[4-(3-{[4-(difluoromethyl)pyrimidin-2-yl]amino}-5-methylphenyl)-1H-pyrazol-1-yl]hexane-2,5-diol] | ≤ 100
27 | Cc1cc(Nc2nccc(C(F)F)n2)cc(-c2cnn(C3CCC(O)C3(C)O)c2)c1 (centres unmarked) [Example 22.14, 5-[4-(3-{[4-(difluoromethyl)pyrimidin-2-yl]amino}-5-methylphenyl)-1H-pyrazol-1-yl]-1-methylcyclopentane-1,2-diol] | ≤ 100
28 | Cc1cc(Nc2cc(C(F)(F)F)ccn2)nc(-c2cnn(C[C@H](O)C(N)=O)c2)c1 [Example 6.15, (2S)-2-hydroxy-3-[4-(4-methyl-6-{[4-(trifluoro-methyl)-pyridin-2-yl]amino}-pyridin-2-yl)-1H-pyrazol-1-yl]-propanamide] | ≤ 100
29 | Cc1cc(Nc2cc(C(C)(F)F)ccn2)nc(-c2cnn(CC3CNC(=O)O3)c2)c1 (centres unmarked) [Example 3.86, 5-{[4-(6-{[4-(1,1-difluoroethyl)pyridin-2-yl]amino}-4-methylpyridin-2-yl)-1H-pyrazol-1-yl]methyl}-1,3-oxazolidin-2-one] | ≤ 100
30 | Cc1cc(Nc2nccc(C(F)F)n2)cc(-c2cnn(C(C)C(C)(O)CO)c2)c1 (single isomer, unassigned) [Example 22.2, 3-(4-(3-((4-(Difluoromethyl)pyrimidin-2-yl)amino)-5-methylphenyl)-1H-pyrazol-1-yl)-2-methylbutane-1,2-diol] | ≤ 100
31 | 1-[4-(3-methyl-5-{[4-(trifluoro-ethyl)pyrimidin-2-yl]amino}-phenyl)-1H-pyrazol-1-yl]-3-morpholin-4-ylpropan-2-ol [Example 5.10] | ≤ 100
32 | 4-{[4-(6-{[4-(difluoromethyl)pyridin-2-yl]amino}-4-methylpyridin-2-yl)-1H-pyrazol-1-yl]methyl}pyrrolidin-2-one [Example 1.35] | ≤ 100
33 | Cc1cc(Nc2nccc(C(C)F)n2)cc(-c2cnn(C[C@H](O)C(N)=O)c2)c1 (stereo partly drawn) [Example 6.8, (2S)-3-[4-(3-{[4-(1-fluoroethyl)-pyrimidin-2-yl]amino}-5-methylphenyl)-1H-pyrazol-1-yl]-2-hydroxy-propanamide] | ≤ 100
34 | Cc1cc(Nc2nccc(C(F)F)n2)cc(-c2cnn(CCNS(=O)(=O)C3CC3)c2)c1 [Example 27.13, N-{2-[4-(3-{[4-(difluoromethyl)pyrimidin-2-yl]amino}-5-methylphenyl)-1H-pyrazol-1-yl]ethyl}cyclopropanesulfonamide] | ≤ 100
35 | Cc1cc(Nc2nccc(C(F)F)n2)cc(-c2cnn(CC3CC(=O)NC3=O)c2)c1 (centres unmarked) [Example 2.73, 3-{[4-(3-{[4-(difluoromethyl)pyrimidin-2-yl]amino}-5-methylphenyl)-1H-pyrazol-1-yl]methyl}pyrrolidine-2,5-dione] | ≤ 100
